# Laboratory results as given in patent publication US20090137549A1, “Novel compounds useful for the treatment of degenerative & inflamatory diseases” (priority 2006, published 2009).
# Molecular target: PDE1A (Homo sapiens, UniProt P54750)
# Test: PDE1A dose response, Cyclic Nucleotide Phosphodiesterase Assay Kit from Biomol (colorimetric)
# Format: biochemical
# Settings: purified PDE1A enzyme, 100 μM cAMP
# Text: For the dose response and further screening, we used the Cyclic Nucleotide
# Phosphodiesterase Assay Kit from Biomol, a colorimetric, non-radioactive assay. The basis for the assay is the cleavage of cAMP by PDE1A. The 5′AMP is further cleaved into the nucleoside and phosphate by the enzyme 5′-nucleotidase (catnr KI-307). The phosphate released due to enzymatic cleavage is quantified using BIOMOL GREEN™ reagent (catnr AK-111) in a modified Malachite Green assay^1,2. A PDE1A inhibitor will result in a decrease of the signal.
# For the enzymatic reaction a mix of 25 μL with purified PDE1A enzyme, 100 μM cAMP, 5′Nucleotidase and the compound is made in a clear 384-plate. The reaction buffer is Tris 20 mM pH 7.4, 4 μg/mL calmodulin, 3 mM MgCl2, 1.5 mM CaCl2, 0.2 mg/mL BSA and 0.001% Brij-35. After an incubation of 45 minutes at 37° C., the reaction is stopped by the addition of 50 μL BIOMOL GREEN™ reagent. After 30 minutes incubation at room temperature, the readout is performed on the Envision (absorption at 615 nm).
# All compounds are tested in duplicate starting from […] followed by a 1/3 serial dilution, 8 points (20 μM-6.67 μM-2.22 μM-740 nM-247 nM-82 nM-27 nM-9 nM) in a final concentration of 1% DMSO. As the positive dose response control compound Vardenafil is used. For the calculation of z′ and PIN values 10 μM Vardenafil is used as positive control (100% inhibition) and 1% DMSO as negative control (0% inhibition).
# The following compounds have been or can be prepared according to the synthetic methods described above. For the purpose of Table 7 below, PDE1A activity of each compound, which can be determined using the assay methods described herein, is expressed as follows: […]
row,Structure (SMILES),IC50
1,"O=C(NCCN1CCOCC1)N1CC(c2nc3c(cnn3C3CCCCC3)c(=O)[nH]2)C1 [Example 61, 3-(1-cyclohexyl-4-oxo-4,5-dihydro-1H-pyrazolo[3,4-d]pyrimidin-6-yl)-N-(2-morpholinoethyl)azetidine-1-carboxamide]",101 to 500 nM
2,"O=C(NCCc1c[nH]cn1)N1CC(c2nc3c(cnn3C3CCCCC3)c(=O)[nH]2)C1 [Example 62, N-(2-(1H-imidazol-4-yl)ethyl)-3-(1-cyclohexyl-4-oxo-4,5-dihydro-1H-pyrazolo[3,4-d]pyrimidin-6-yl)azetidine-1-carboxamide]",101 to 500 nM
3,"COc1ccc(OC)c(S(=O)(=O)N2CCCC(c3nc4c(cnn4C4CCCCC4)c(=O)[nH]3)C2)c1 (stereo not shown) [Example 63, 1-cyclohexyl-6-(1-(2,5-dimethoxyphenylsulfonyl)piperidin-3-yl)-1H-pyrazolo[3,4-d]pyrimidin-4(5H)-one]",101 to 500 nM
4,"COc1ccccc1C(=O)N1CCCC(c2nc3c(cnn3-c3ccccc3)c(=O)[nH]2)C1 (stereo not shown) [Example 65, 6-(1-(2-methoxybenzoyl)piperidin-3-yl)-1-phenyl-1H-pyrazolo[3,4-d]pyrimidin-4(5H)-one]",101 to 500 nM
5,"CN(C)c1ccc(C(=O)N2CCCC(c3nc4c(cnn4-c4ccccc4)c(=O)[nH]3)C2)cc1 (stereo not shown) [Example 67, 6-(1-(4-(dimethylamino)benzoyl)piperidin-3-yl)-1-phenyl-1H-pyrazolo[3,4-d]pyrimidin-4(5H)-one]",101 to 500 nM
6,"COc1cccc(C(=O)N2CCCC(c3nc4c(cnn4-c4ccccc4)c(=O)[nH]3)C2)c1 (stereo not shown) [Example 68, 6-(1-(3-methoxybenzoyl)piperidin-3-yl)-1-phenyl-1H-pyrazolo[3,4-d]pyrimidin-4(5H)-one]",101 to 500 nM
7,"O=C(NC1CC1)N1CC(c2nc3c(cnn3C3CCCCC3)c(=O)[nH]2)C1 [Example 69, 3-(1-cyclohexyl-4-oxo-4,5-dihydro-1H-pyrazolo[3,4-d]pyrimidin-6-yl)-N-cyclopropylazetidine-1-carboxamide]",101 to 500 nM
8,"Cn1cncc1CNC(=O)N1CC(c2nc3c(cnn3C3CCCCC3)c(=O)[nH]2)C1 [Example 74, 3-(1-cyclohexyl-4-oxo-4,5-dihydro-1H-pyrazolo[3,4-d]pyrimidin-6-yl)-N-((1-methyl-1H-imidazol-5-yl)methyl)azetidine-1-carboxamide]",101 to 500 nM
9,"COc1ccc(S(=O)(=O)N2CCCC(c3nc4c(c(C)nn4-c4ccccc4)c(=O)[nH]3)C2)cc1 (stereo not shown) [Example 75, 6-(1-(4-methoxyphenylsulfonyl)piperidin-3-yl)-3-methyl-1-phenyl-1H-pyrazolo[3,4-d]pyrimidin-4(5H)-one]",101 to 500 nM
10,"O=C(c1ccc2c(c1)OCO2)N1CCCC(c2nc3c(cnn3C3CCCCC3)c(=O)[nH]2)C1 (stereo not shown) [Example 76, 6-(1-(benzo[d][1,3]dioxole-5-carbonyl)piperidin-3-yl)-1-cyclohexyl-1H-pyrazolo[3,4-d]pyrimidin-4(5H)-one]",101 to 500 nM
11,"COc1cccc(S(=O)(=O)N2CCCC(c3nc4c(cnn4C4CCCCC4)c(=O)[nH]3)C2)c1 (stereo not shown) [Example 79, 1-cyclohexyl-6-(1-(3-methoxyphenylsulfonyl)piperidin-3-yl)-1H-pyrazolo[3,4-d]pyrimidin-4(5H)-one]",501 to 1000 nM
12,"Cc1nn(-c2ccccc2)c2nc(C3CCCN(C(=O)c4ccc(N(C)C)cc4)C3)[nH]c(=O)c12 (stereo not shown) [Example 80, 6-(1-(4-(dimethylamino)benzoyl)piperidin-3-yl)-3-methyl-1-phenyl-1H-pyrazolo[3,4-d]pyrimidin-4(5H)-one]",501 to 1000 nM
13,"COc1cccc(C(=O)N2CCCC(c3nc4c(c(C)nn4-c4ccccc4)c(=O)[nH]3)C2)c1 (stereo not shown) [Example 81, 6-(1-(3-methoxybenzoyl)piperidin-3-yl)-3-methyl-1-phenyl-1H-pyrazolo[3,4-d]pyrimidin-4(5H)-one]",501 to 1000 nM
14,"O=C(N1CCCCC1)N1CC(c2nc3c(cnn3C3CCCCC3)c(=O)[nH]2)C1 [Example 83, 1-cyclohexyl-6-(1-(piperidine-1-carbonyl)azetidin-3-yl)-1H-pyrazolo[3,4-d]pyrimidin-4(5H)-one]",501 to 1000 nM
15,"O=C(NCCN1CCCC1)N1CC(c2nc3c(cnn3C3CCCCC3)c(=O)[nH]2)C1 [Example 84, 3-(1-cyclohexyl-4-oxo-4,5-dihydro-1H-pyrazolo[3,4-d]pyrimidin-6-yl)-N-(2-(pyrrolidin-1-yl)ethyl)azetidine-1-carboxamide]",501 to 1000 nM

# Other lines, results leading:
row,IC50,Structure (SMILES)
1,101 to 500 nM,"Cc1nn(C2CCCCC2)c2nc(C3CCCN(C(=O)c4cccc(NS(C)(=O)=O)c4)C3)[nH]c(=O)c12 (stereo not shown) [Example 64, N-(3-(3-(1-cyclohexyl-3-methyl-4-oxo-4,5-dihydro-1H-pyrazolo[3,4-d]pyrimidin-6-yl)piperidine-1-carbonyl)phenyl)methanesulfonamide]"
2,101 to 500 nM,"COC(=O)c1ccc(C(=O)N2CCCC(c3nc4c(c(C)nn4C4CCCCC4)c(=O)[nH]3)C2)cc1 (stereo not shown) [Example 66, methyl 4-(3-(1-cyclohexyl-3-methyl-4-oxo-4,5-dihydro-1H-pyrazolo[3,4-d]pyrimidin-6-yl)piperidine-1-carbonyl)benzoate]"
3,101 to 500 nM,"COc1ccc(S(=O)(=O)N2CCCC(c3nc4c(c(C)nn4C4CCC4)c(=O)[nH]3)C2)cc1 (stereo not shown) [Example 70, 1-cyclobutyl-6-(1-(4-methoxyphenylsulfonyl)piperidin-3-yl)-3-methyl-1H-pyrazolo[3,4-d]pyrimidin-4(5H)-one]"
4,101 to 500 nM,"COc1cccc(C(=O)N2CCCC(c3nc4c(c(C)nn4C4CCCCC4)c(=O)[nH]3)C2)c1 (stereo not shown) [Example 71, 1-cyclohexyl-6-(1-(3-methoxybenzoyl)piperidin-3-yl)-3-methyl-1H-pyrazolo[3,4-d]pyrimidin-4(5H)-one]"
5,101 to 500 nM,"Cc1nn(C2CCCCC2)c2nc(C3CN(C(=O)c4ccccc4)C3)[nH]c(=O)c12 [Example 72, 6-(1-benzoylazetidin-3-yl)-1-cyclohexyl-3-methyl-1H-pyrazolo[3,4-d]pyrimidin-4(5H)-one]"
6,101 to 500 nM,"COC(=O)c1cccc(C(=O)N2CCCC(c3nc4c(c(C)nn4C4CCCCC4)c(=O)[nH]3)C2)c1 (stereo not shown) [Example 73, methyl 3-(3-(1-cyclohexyl-3-methyl-4-oxo-4,5-dihydro-1H-pyrazolo[3,4-d]pyrimidin-6-yl)piperidine-1-carbonyl)benzaate]"
7,101 to 500 nM,"COc1ccc(C(=O)N2CCCC(c3nc4c(c(C)nn4C4CCCCC4)c(=O)[nH]3)C2)cc1 (stereo not shown) [Example 77, 1-cyclohexyl-6-(1-(4-methoxybenzoyl)piperidin-3-yl)-3-methyl-1H-pyrazolo[3,4-d]pyrimidin-4(5H)-one]"
8,501 to 1000 nM,"COc1cccc(C(=O)N2CCCC(c3nc4c(c(C)nn4C4CCC4)c(=O)[nH]3)C2)c1 (stereo not shown) [Example 78, 1-cyclobutyl-6-(1-(3-methoxybenzoyl)piperidin-3-yl)-3-methyl-1H-pyrazolo[3,4-d]pyrimidin-4(5H)-one]"
9,501 to 1000 nM,"COc1ccccc1C(=O)N1CCCC(c2nc3c(c(C)nn3C3CCC3)c(=O)[nH]2)C1 (stereo not shown) [Example 82, 1-cyclobutyl-6-(1-(2-methoxybenzoyl)piperidin-3-yl)-3-methyl-1H-pyrazolo[3,4-d]pyrimidin-4(5H)-one]"
10,501 to 1000 nM,"Cc1nn(C2CCCCC2)c2nc(C3CN(C(=O)Cc4ccccc4)C3)[nH]c(=O)c12 [Example 85, 1-cyclohexyl-3-methyl-6-(1-(2-phenylacetoyl)azetidin-3-yl)-1H-pyrazolo[3,4-d]pyrimidin-4(5H)-one]"
